{
  "source": "paper PMC2655680",
  "about": "(Nucleic Acids Research, 2009)",
  "molecular_target": "PNK–FHA (FHA domain of human PNK, amino acids 1–109) (Homo sapiens, UniProt Q96T60)",
  "format": "binding",
  "details": "ITC, peptide injected into PNK–FHA, 10°C, pH 7.5; floating variable of the fit",
  "note": "Where “and” joins values, the source holds several entries; their conditions need not be identical. Equal values may be shown once.",
  "data": [
    {"sequence": "YAGSTDENTDSE", "values": [
      {"measurement": "N (stoichiometry, estimated molar ratio peptide:PNK–FHA)", "result": "0.46 and 0.50 and 0.56 and 0.88 and 0.51"}
    ]}
  ]
}
